Data reported in patent publication US10940139B2, “Compounds that interact with the Ras superfamily for the treatment of cancers, inflammatory diseases, rasopathies, and fibrotic disease” (Shy Therapeutics LLC, priority 2017, dated 2021).

Test system: IL6 production in RAW 264.7 macrophage cell line
Test: Mouse IL6 quantification assay (LPS-stimulated macrophages, ELISA)
Format: cell-based
Settings: RAW264.7, RAW 264.7 murine leukemia virus transformed macrophage cell lines, LPS stimulation, read-out: IL-6 % Inhibition at 30 μM

SMILES	inhibition at 30 µM
O=C(NCCc1cncs1)c1csc2nc(-c3ccccn3)nc(N3CCOCC3)c12 [drawing 2176]	1 to 25%
Cc1sc2nc(N)nc(O)c2c1C [drawing 2165]	1 to 25%
Oc1nc(-c2ccccn2)nc2c(-c3ccc(F)cc3F)csc12 [drawing 2263]	76 to 100%
O=C(CC(c1ccccc1)c1ccccc1)N1CCCc2c(O)nc(-c3ccccn3)nc21 [drawing 2086]	26 to 50%

Test system: TNFα production in RAW 264.7 macrophage cell line
Test: Mouse TNF alpha quantification assay (LPS-stimulated macrophages, ELISA)
Format: cell-based
Settings: RAW264.7, RAW 264.7 murine leukemia virus transformed macrophage cell lines, LPS stimulation, read-out: TNF-α % Inhibition at 30 μM

SMILES	inhibition at 30 µM
O=C(NCCc1cncs1)c1csc2nc(-c3ccccn3)nc(N3CCOCC3)c12 [drawing 2176]	0%
Cc1sc2nc(N)nc(O)c2c1C [drawing 2165]	1 to 25%
Oc1nc(-c2ccccn2)nc2c(-c3ccc(F)cc3F)csc12 [drawing 2263]	26 to 50%
O=C(CC(c1ccccc1)c1ccccc1)N1CCCc2c(O)nc(-c3ccccn3)nc21 [drawing 2086]	0%

Target: KRas G12D/Q61H double mutant (Homo sapiens (Human), UniProt P01116, G12D/Q61H)
Sequence (P01116-2 other isoform, or with tags, fused parts or gaps G12D/Q61H): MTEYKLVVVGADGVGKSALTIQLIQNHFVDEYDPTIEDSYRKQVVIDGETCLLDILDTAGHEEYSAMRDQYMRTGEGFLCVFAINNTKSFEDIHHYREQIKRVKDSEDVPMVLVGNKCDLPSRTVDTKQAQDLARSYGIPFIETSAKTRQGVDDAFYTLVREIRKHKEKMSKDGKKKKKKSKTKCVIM
Test: Ras GTP binding domain inhibition assay (labeled GTP)
Settings: 20 μM compound; KRas G12D/Q61H double mutant
Outline: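 His-tagged KRas protein (3-10 μg/ml) was captured overnight at 4° C on nickel-coated wells in 50 mM Tris pH 7.5, 1 mM MgCl2, 1 mM DTT. Bound labeled GTP was read by fluorescence after washing.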

% Inhibition at 20 μM of K-Ras mutant and wild-type protein, KRas G12D Q61H	SMILES
A (1-25% inhibition)	O=C(Cc1ccc2c(c1)OCCO2)Nc1nc(-c2ccccn2)cs1 [drawing 3247]

Same assay, conditions: 20 μM compound; KRas G12D/Q61H double mutant; read-out: % Inhibition at 20 μM of K-Ras mutant and wild-type protein, KRas G12D Q61H

inhibition at 20 µM	SMILES
25 to 50%	O=C(CSCc1cccc(F)c1)Nc1ccc(-c2ccccc2)cc1
1 to 25%	CCN(C(=O)c1cnn(-c2ccccc2)n1)c1ccccc1
25 to 50%	CCCCc1ccc([N+]2=C3SCCCN3CC2(O)c2ccc(C)cc2)cc1 (centres unmarked)
25 to 50%	CC(=O)c1cc(C(=O)Nc2cccc(COC3CCCCC3)c2)n(C)c1
25 to 50%	CCSC1CCCCC1NCc1nc(-c2ccc(OC(F)F)c(OC)c2)no1 (centres unmarked)
51 to 75%	CCN(C(=O)CCc1c(C)nc(-c2ccccn2)nc1O)C1CCCC1
1 to 25%	CCn1c(SCCCc2nc3ccccc3o2)nc2ccsc2c1=O
25 to 50%	O=C(NN(Cc1ccccc1)Cc1ccccc1)c1n[nH]c(=O)c2ccccc12
25 to 50%	CCCN(CC1CC1)S(=O)(=O)Oc1ccc(N(C)S(=O)(=O)c2cccs2)cc1
1 to 25%	CN(Cc1ccc(S(=O)(=O)N(C)C)o1)c1ccccc1-c1ccccc1
25 to 50%	Cc1occc1C(=O)OCC(COC(=O)c1ccoc1C)NC(=O)OC(C)(C)C
25 to 50%	CCOc1cc(CN(C(=O)CCc2nc(-c3ccsc3)no2)C2CC2)ccc1OC(F)(F)F
1 to 25%	Cc1nc(Cc2nnc(SCc3ccc(-c4ccccc4C#N)cc3)o2)cs1
25 to 50%	O=c1c(Cc2cc(Cl)c3cccnc3c2O)c(O)oc2ccccc12
25 to 50%	COc1ccc(OC)c(CCC(=O)N2CCN(c3ncc(C(F)(F)F)cc3Cl)CC2)c1
25 to 50%	COc1ccc(COCC(CNC(=O)c2cc(C)cc(C)c2)OC(=O)c2cc(C)cc(C)c2)cc1 (centres unmarked)

inhibition at 20 µM	SMILES
25 to 50%	O=c1[nH]c(CN(CCc2ccc(Cl)cc2)Cc2nc3ccsc3c(=O)[nH]2)nc2ccsc12
1 to 25%	COCCCCC(=O)N(c1cc(C)ccc1F)C(C)c1ccc(C)cc1 (centres unmarked)
25 to 50%	Cc1cccc(-n2ccnc2SCCCc2nc(-c3cccs3)no2)c1
25 to 50%	CC(C)(C)OC(=O)N1CCCN1c1nc(-c2cccs2)nc2ccccc12
25 to 50%	CCOc1ccc(CSc2nnc(-c3ccco3)n2-c2ccccc2)cc1OCC
25 to 50%	O=C(CN(Cc1csc(COc2ccc(F)cc2)n1)Cc1ccco1)Nc1ccccc1
25 to 50%	CN(Cc1ccccc1C(F)(F)F)S(=O)(=O)CCc1ccccc1[N+](=O)[O-]
1 to 25%	O=c1c(Cl)cc(C(F)(F)F)cn1Cc1csc(COc2ccc(Cl)cc2)n1
25 to 50%	CC(C)c1ccc(-c2nc(C(=O)NC(C)c3ccccn3)cs2)cc1 (centres unmarked)
51 to 75%	CC(C)c1ccc(CSc2nnc(SCCNC(=O)C3CCCC3)s2)cc1
1 to 25%	CC(NC(=O)C1CSC(c2ccccc2)=N1)c1ccccn1 (centres unmarked)
25 to 50%	CCc1oc2ccccc2c1CN(C)C(=O)c1cccc(OCc2c(C)noc2C)c1
25 to 50%	CC1CCCN(c2nc(-c3ccc(O)cc3O)cs2)C1 (centres unmarked)
25 to 50%	COCCNc1ccc([N+](=O)[O-])cc1C(=O)OCCOc1ccccc1
1 to 25%	O=c1[nH]c(NCC(O)c2ccccc2)nc2ccccc12 (centres unmarked)
1 to 25%	Cc1ccc(OC(C)C(=O)Nc2ccccc2S(=O)(=O)NC(C)(C)C)c(Br)c1 (centres unmarked)

Same assay, conditions: 20 μM compound; read-out: % Inhibition at 20 μM KRas G12D Q61H

inhibition at 20 µM	SMILES
25 to 50%	Cc1ccc(C)c(OCc2nnc(SCC(C)C(=O)c3ccc(F)c(F)c3)o2)c1 (centres unmarked)
25 to 50%	O=S(=O)(NC(c1ccccc1)c1ccccn1)c1cc(C(F)(F)F)ccc1Cl (centres unmarked)
1 to 25%	Nc1nc(O)c2scc(-c3ccccc3)c2n1 [drawing 2692]
25 to 50%	CCc1cc(CNc2cc(C)c([N+](=O)[O-])c(C(=O)OC)c2)on1
25 to 50%	Cc1ccc2cccc(OS(=O)(=O)N3CCOCC3)c2n1
25 to 50%	CC(C)CCS(=O)(=O)CC(=O)Nc1nnc(-c2ccccn2)[nH]1
1 to 25%	CN(C(=O)c1ccc(COc2ccccc2)o1)C1CCCCC1
25 to 50%	Cc1n[nH]c(C2CN(C(C)c3ccncc3)CCO2)n1 (centres unmarked)
1 to 25%	CN(CC(=O)N1CCOCC1)C(=O)c1ccc(COc2ccc(F)cc2)o1
1 to 25%	Cc1noc(CN(Cc2ccc(C#N)cc2)Cc2cccc(F)c2)n1
1 to 25%	O=C(NCCc1ccc(O)nc1)c1csc2nc(-c3ccccn3)nc(N3CCOCC3)c12 [drawing 2809]
25 to 50%	O=C(Nc1nnc(-c2ccccn2)[nH]1)C1CC(c2ccccc2)C1 (centres unmarked)
1 to 25%	Cc1cnc(-c2ccccn2)nc1NC(=O)Cc1ccc(C#N)cc1 [drawing 2814]
25 to 50%	Cc1nc(CN(Cc2ccccc2)Cc2ccccc2)no1
1 to 25%	COC(=O)c1ccc(C(=O)N2Cc3ccccc3C(c3ccccc3)C2)nc1 (centres unmarked)
25 to 50%	Cc1cccc(C)c1Oc1ccccc1NCc1nc(C2CC2)no1
25 to 50%	Cc1nc(-c2ccccn2)[nH]c(=O)c1CCO
25 to 50%	CN(C(=O)c1ccc(COc2ccccc2F)o1)c1nccs1
25 to 50%	OC1CCC(Nc2nc(-c3ccccn3)nc3c2CCC3)CC1 (centres unmarked)
1 to 25%	O=C(NCCc1cnc(O)nc1)c1csc2nc(-c3ccccn3)nc(N3CCOCC3)c12 [drawing 2810]
25 to 50%	Cc1cc(NCCNC(=O)c2ccco2)nc(-c2ccccn2)n1

inhibition at 20 µM	SMILES
1 to 25%	CC(=O)Nc1ccc(-c2nc(NC3CCCCC3)sc2C)cc1
25 to 50%	CN1CCN(Cc2nnc(-c3ccccc3Cl)o2)c2ccc(F)cc21
25 to 50%	CC(Oc1ccc(F)cc1)c1nnc(SCCOc2ccc(F)cc2)o1 (centres unmarked)
1 to 25%	Nc1nc(O)c2scc(-c3ccccc3Cl)c2n1 [drawing 2693]
1 to 25%	COc1cccc(OCCn2c(CN3CCOCC3)nc3ccccc32)c1
25 to 50%	COc1ccccc1CN(Cc1cccs1)C(=O)c1ccc(N2CCCS2(=O)=O)cc1
1 to 25%	Brc1csc2nc(-c3ccccn3)nc(N3CCOCC3)c12 [drawing 2701]
25 to 50%	O=C(CCc1nc2ccccc2s1)Nc1nnc(-c2ccccn2)[nH]1
1 to 25%	COc1ccc(-c2nc(C(=O)NCc3ccccn3)cs2)cc1
1 to 25%	Cc1ccccc1OCCn1c(CN2CCOCC2)nc2ccccc21
25 to 50%	CC(C)(C)c1ccc(OCC(=O)N2N=CCC2(O)C(F)(F)F)cc1 (centres unmarked)
1 to 25%	CCOCc1c(C(=O)N(Cc2cccs2)Cc2ccccc2OC)oc2ccccc12
1 to 25%	O=C(c1ccc(COc2ccccc2F)o1)N1CCOc2ccccc21
25 to 50%	CCC(C)c1ccc(S(=O)(=O)N(C)C(c2ccccc2)c2ccccn2)cc1 (centres unmarked)
1 to 25%	CC(C)N(Cc1ccccn1)Cc1nc2ccccc2n1C(F)F
25 to 50%	Cc1ccc(S(=O)(=O)NC(c2ccccc2)c2ccccn2)c(Cl)c1 (centres unmarked)
25 to 50%	O=C(Nc1nnc(-c2ccccn2)[nH]1)c1ccncc1
51 to 75%	COCCCC1CCN(C(=O)c2csc3c(O)nc(-c4ccccn4)nc23)CC1 [drawing 2677]
25 to 50%	CCCCN(C(=O)c1nn(-c2ccccc2)nc1C)c1ccccc1
25 to 50%	Cc1sc(C2CC2)nc1-c1ccc(F)c(F)c1

Same assay, conditions: 20 μM; read-out: KRas G12D Q61H % Inh.

inhibition at 20 µM	SMILES
51 to 75%	CC(C(=O)Nc1nnc(-c2ccccn2)[nH]1)n1cnc2ccccc21 (centres unmarked)
51 to 75%	Cc1ccc(-c2ccc(Oc3ccc(C(F)(F)F)cn3)c(C)c2)cc1 [drawing 2621]
51 to 75%	O=C(Cc1ccc(-n2cnnn2)cc1)Nc1nnc(-c2ccccn2)[nH]1 [drawing 2452]
51 to 75%	O=C(Nc1nnc(-c2ccccn2)[nH]1)c1nc(N2CCOCC2)ncc1Cl [drawing 2508]
51 to 75%	O=C(Nc1nnc(-c2ccccn2)[nH]1)C1CCCC1 [drawing 2489]
51 to 75%	O=C(CC1C=CCC1)Nc1nnc(-c2ccccn2)[nH]1 (centres unmarked) [drawing 2484]
51 to 75%	CC(C)COC(C)C(=O)Nc1nnc(-c2ccccn2)[nH]1 (centres unmarked) [drawing 2505]
51 to 75%	COc1cccc(CCC(=O)Nc2nnc(-c3ccccn3)[nH]2)c1 [drawing 2453]
51 to 75%	O=C(Nc1nnc(-c2ccccn2)[nH]1)c1csc(-c2ccco2)n1 [drawing 2546]
51 to 75%	COc1ccc2c(ccn2CC(=O)Nc2nnc(-c3ccccn3)[nH]2)c1 [drawing 2470]
51 to 75%	Cc1ccc(CN(Cc2ccco2)C(=O)c2oc3ccccc3c2C)cc1 [drawing 2614]

Same assay, conditions: at 20 μM; read-out: KRas G12D Q61H % Inh.

inhibition at 20 µM	SMILES
51 to 75%	COC(=O)c1c(C)sc2nc(-c3ccccn3)nc(N)c12 [drawing 3804]
25 to 50%	O=C(c1csc2c(O)nc(-c3ccccn3)nc12)N1CCNC(c2ccc(Cl)cc2)C1 (centres unmarked) [drawing 3843]
